Test results reported in US12570606B2, “Myeloperoxidase imaging agents” (The General Hospital Corporation, priority 2016, dated 2026).

Tests used:
[1] = Blood brain barrier assay, PET brain uptake; type: in vivo, Female C57Bl/6J mice
Procedure: Female C57Bl/6J mice were injected intravenously with either 3′-deoxy-3′-^18F-fluorothymidine (FLT) or Compound 9 (300-600 μCi). The mice were imaged 2 hours after the PET tracers were injected.

MPO = molecular target: T1, MPO (Homo sapiens, UniProt P05164); experiment: MPO-PET matrigel implantation imaging in mice; type: in vivo, mouse
T1 sequence (P05164 49-745): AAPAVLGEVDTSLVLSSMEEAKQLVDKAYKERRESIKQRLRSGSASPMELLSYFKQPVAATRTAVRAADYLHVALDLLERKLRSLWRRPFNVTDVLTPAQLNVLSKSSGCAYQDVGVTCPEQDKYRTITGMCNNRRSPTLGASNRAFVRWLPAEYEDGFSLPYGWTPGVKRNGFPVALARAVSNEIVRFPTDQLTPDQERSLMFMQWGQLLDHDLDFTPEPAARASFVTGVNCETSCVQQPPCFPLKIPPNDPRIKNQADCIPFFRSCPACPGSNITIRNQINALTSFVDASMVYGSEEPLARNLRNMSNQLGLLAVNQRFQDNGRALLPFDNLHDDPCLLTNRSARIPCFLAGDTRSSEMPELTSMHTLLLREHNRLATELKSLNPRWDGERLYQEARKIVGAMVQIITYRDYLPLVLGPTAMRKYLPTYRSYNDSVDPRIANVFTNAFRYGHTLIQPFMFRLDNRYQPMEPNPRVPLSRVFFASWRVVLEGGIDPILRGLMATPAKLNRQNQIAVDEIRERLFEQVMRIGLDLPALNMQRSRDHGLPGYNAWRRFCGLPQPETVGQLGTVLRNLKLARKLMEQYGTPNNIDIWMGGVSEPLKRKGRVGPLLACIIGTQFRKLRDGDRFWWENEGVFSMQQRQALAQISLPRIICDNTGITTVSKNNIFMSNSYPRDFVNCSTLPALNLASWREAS
Procedure: 300 μL of 1:1 mixture of matrigel and minimal essential medium (MEM) containing GOX and/or different concentrations of MPO (0, 15 μL, 30 μL) was injected subcutaneously into the ventral aspect of the thighs of the mouse. After 30 min, 300-600 μCi of MPO Compound 9 was injected intravenously. After 2 h, the mice were scanned using PET scanning.
To validate the efficacy of the MPO PET agents for in vivo applications, matrigel implantation experiments were performed by embedding MPO in matrigel along with glucose oxidase (GOX) as H2O2 donor. Matrigel is a gelatinous protein mixture that is liquid at 0° C. but forms a gel at body temperature while remaining diffusible to molecules from the bloodstream when injected into living animals (see e.g., Chen et al, Radiology, 2006, 240(2):473-481). The MPO/matrigel mixtures were injected subcutaneously to the thighs of the mice followed by injection of the MPO PET tracers 30 min later. […] The signal of MPO side was around 1.7 fold higher compared to that of control side.
To verify the specificity of Compound 9 over MPO, different concentrations of MPO (0, 15 μL, 30 μL) were embedded in matrigel for the implantation experiments.

- Crossing of the blood brain barrier ([1]; intact BBB): can cross intact BBB
- PET signal versus MPO concentration (MPO; MPO 0, 15 μL, 30 μL embedded in matrigel): linear increase in signal
- PET signal of MPO side compared to control side (MPO; matrigel with GOX+MPO vs GOX only in mouse thighs, scan 2 h after i.v. tracer): around 1.7 fold
SMILES: O=C(Cc1c[nH]c2ccc(O)cc12)NC(Cc1c[nH]c2ccc(O)cc12)C(=O)NCCOCCOCC[18F] (centres unmarked) [Compound 9]
- Uptake in the brain (SUV, FIG. 12) ([1]; 300-600 μCi i.v., imaged 2 hours after injection): higher uptake in the brain compared to FLT
- Background, organ uptake and defluorination (MPO; matrigel PET imaging in mice): high ratio of signal to background, lower liver and heart uptake and no observed defluorination
